US20210386367A1, “DEVICES AND SYSTEMS FOR GASTROINTESTINAL MICROBIOME DETECTION AND MANIPULATION” (Progenity, Inc., priority 2018, published 2021)
Converted amounts (≈) assume the structure as drawn. Like-named read-outs stand apart in the source and are kept apart here.

Key:
[1] = tested on: B. vulgatus; assay: Spontaneous mutation frequency and mutation prevention concentration (MPC); format: cell-based; details: B. vulgatus ATCC 8482
Source text: (§1) As used herein, “spontaneous mutation frequency” refers to the rate at which mutations arise in a bacterium that can lead to resistance to develop to an antimicrobial agent. “Mutation prevention concentration” or “MPC” refers to the lowest concentration of antimicrobial agent above which the selective proliferation of resistant mutants is expected to occur only rarely.

[2] = tested on: Escherichia coli; assay: as above; format: cell-based
Source text: as §1

[3] = tested on: S. pyogenes; assay: as above; format: cell-based; details: S. pyogenes ATCC 49399
Source text: as §1

[4] = tested on: E. coli ATCC 35218 (TEM-1 β-lactamase producer); assay: Broth microdilution MIC (time-kill study); format: cell-based, Escherichia coli
[5] = tested on: S. pneumoniae ATCC 49619; assay: Broth microdilution MIC (time-kill study); format: cell-based, Streptococcus pneumoniae
[6] = tested on: E. coli ATCC 25922; assay: Time-kill assay; format: cell-based, Escherichia coli; details: 2×, 4×, 8× MIC; 2, 6, 24 hr
[7] = tested on: E. coli MMX 1312; assay: Time-kill assay; format: cell-based, Escherichia coli
[8] = tested on: B. vulgatus ATCC 8482; assay: Time-kill assay; format: cell-based, Bacteroides vulgatus; details: 2×, 4×, 8× MIC; 2, 6, 24, 48 hr
[9] = tested on: Streptococcus spp. spontaneous mutants; assay: organism not typed; format: cell-based
Outline: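 Spontaneous mutants from drug selection plates were tested by CLSI broth microdilution in MHB II with two-fold serial drug dilutions. Inoculum was about 5×10^5 CFU/mL, incubated aerobically at 35° C. for 18-20 hr. MIC was the lowest concentration inhibiting visible growth.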

[10] = tested on: SIBO Bacteria; details: cited from earlier work
[11] = E. coli ATCC 25922, selection 4X MIC, 0.06 μg/mL
[12] = E. coli ATCC 35218, selection 4X MIC, 0.06 μg/mL
[13] = E. coli MMX 1312, selection 4X MIC, 0.06 μg/mL, TNTC = too numerous to count

C[C@@H](O)[C@H]1C(=O)N2C(C(=O)O)=C(S[C@@H]3CN[C@H](C(=O)N(C)C)C3)[C@H](C)[C@H]12 [meropenem]
MPC [1]: 0.5 µg/mL | Average Count ([1]; selection 4X MIC, 0.5 μg/mL): 0 CFU | Count 1 ([1]; selection 4X MIC, 0.5 μg/mL): 0 CFU | Count 2 ([1]; selection 4X MIC, 0.5 μg/mL): 0 CFU | Spontaneous Mutation Frequency ([1]; selection 4X MIC, 0.5 μg/mL): ≤1.73 × 10^−10 | Average Count ([1]; selection 8X MIC, 1 μg/mL): 0 CFU | Count 1 ([1]; selection 8X MIC, 1 μg/mL): 0 CFU | Count 2 ([1]; selection 8X MIC, 1 μg/mL): 0 CFU | Spontaneous Mutation Frequency ([1]; selection 8X MIC, 1 μg/mL): ≤1.73 × 10^−10 | Average Count [2]: 0 CFU | Count 1 [2]: 0 CFU | Count 2 [2]: 0 CFU | MPC ([2]; E. coli ATCC 25922): 0.06 µg/mL | Average Count [2, 11]: 0 CFU | Count 1 [2, 11]: 0 CFU | Count 2 [2, 11]: 0 CFU | Spontaneous Mutation Frequency [2, 11]: ≤7.41 × 10^−9 | MPC ([2]; E. coli ATCC 35218): 0.06 µg/mL | Average Count [2, 12]: 0 CFU | Count 1 [2, 12]: 0 CFU | Count 2 [2, 12]: 0 CFU | Spontaneous Mutation Frequency [2, 12]: ≤5.13 × 10^−9 | Average Count [2, 13]: TNTC | Count 1 [2, 13]: TNTC | Count 2 [2, 13]: TNTC | MPC [3]: 0.03 µg/mL | Average Count ([3]; selection 4X MIC, 0.03 μg/mL): 0 CFU | Count 1 ([3]; selection 4X MIC, 0.03 μg/mL): 0 CFU | Count 2 ([3]; selection 4X MIC, 0.03 μg/mL): 0 CFU | Spontaneous Mutation Frequency ([3]; selection 4X MIC, 0.03 μg/mL): ≤1.81 × 10^−10 | Average Count ([3]; selection 8X MIC, 0.06 μg/mL): 0 CFU | Count 1 ([3]; selection 8X MIC, 0.06 μg/mL): 0 CFU | Count 2 ([3]; selection 8X MIC, 0.06 μg/mL): 0 CFU | Spontaneous Mutation Frequency ([3]; selection 8X MIC, 0.06 μg/mL): ≤1.81 × 10^−10 | MIC ([4]; E. coli ATCC 35218): 0.015 µg/mL (≈ 0.0391 µM) | MIC ([4]; Escherichia coli, ATCC35218): 0.015 µg/mL (≈ 0.0391 µM) | MIC ([5]; S. pneumoniae ATCC 49619): 0.06 µg/mL (≈ 0.156 µM) | MIC ([5]; Streptococcus pneumoniae, ATCC49619, broth microdilution, read-out: MIC): 0.06 µg/mL (≈ 0.156 µM) | time-kill kinetics outcome (bactericidal = ≥3 log reduction in CFU per mL) [6]: rapid killing and bactericidal activity at the two higher concentrations at 24 hr | time-kill kinetics outcome (bactericidal = ≥3 log reduction in CFU per mL) ([7]; 2×, 4×, 8× MIC, 2, 6, 24 hr): regrowth was observed at 24 hr for all concentrations | CFU decrease ([7]; 8×MIC, 6 hr timepoint): 3 log10 CFU | time-kill kinetics outcome (bactericidal = ≥3 log reduction in CFU per mL) [8]: bactericidal effect at 24 and 48 hr at 4× and 8×MIC | MIC ([9]; S. pneumoniae ATCC 49619, selected on rifaximin 4X MIC, Colony A): 0.03 µg/mL (≈ 0.0782 µM) | MIC ([9]; S. pneumoniae ATCC 49619, selected on rifaximin 4X MIC, Colony B): 0.03 µg/mL (≈ 0.0782 µM) | MIC ([9]; S. pneumoniae ATCC 49619, selected on rifaximin 8X MIC, Colony A): 0.03 µg/mL (≈ 0.0782 µM) | MIC ([9]; S. pneumoniae ATCC 49619, selected on rifaximin 8X MIC, Colony B): 0.03 µg/mL (≈ 0.0782 µM) | MIC ([9]; S. pneumoniae ATCC 49619 Parent): 0.03 µg/mL (≈ 0.0782 µM) | MIC ([9]; S. pyogenes ATCC 49399, selected on rifaximin 4X MIC, Colony A): 0.002 µg/mL (≈ 0.00522 µM) | MIC ([9]; S. pyogenes ATCC 49399, selected on rifaximin 4X MIC, Colony B): 0.004 µg/mL (≈ 0.0104 µM) | MIC ([9]; S. pyogenes ATCC 49399, selected on rifaximin 8X MIC, Colony A): 0.004 µg/mL (≈ 0.0104 µM) | MIC ([9]; S. pyogenes ATCC 49399, selected on rifaximin 8X MIC, Colony B): 0.004 µg/mL (≈ 0.0104 µM) | MIC ([9]; S. pyogenes ATCC 49399 Parent): 0.004 µg/mL (≈ 0.0104 µM) | MIC ([9]; Streptococcus, ATCC13813, S. agaloctiae ATCC 13813, selected on rifaximin 4X MIC, Colony A): 0.015 µg/mL (≈ 0.0391 µM) | MIC ([9]; Streptococcus, ATCC13813, S. agaloctiae ATCC 13813, selected on rifaximin 4X MIC, Colony B): 0.015 µg/mL (≈ 0.0391 µM) | MIC ([9]; Streptococcus, ATCC13813, S. agaloctiae ATCC 13813, selected on rifaximin 8X MIC, Colony A): 0.015 µg/mL (≈ 0.0391 µM) | MIC ([9]; Streptococcus, ATCC13813, S. agaloctiae ATCC 13813, selected on rifaximin 8X MIC, Colony B): 0.03 µg/mL (≈ 0.0782 µM) | MIC ([9]; Streptococcus, ATCC13813, S. agaloctiae ATCC 13813 Parent): 0.008 µg/mL (≈ 0.0209 µM) | activity against SIBO organisms [10]: active against SIBO organisms
